The subject of series [1] is FaDu head and neck carcinoma xenografts. The series is described as follows: FaDu head and neck carcinoma xenografts in SCID mice. The format is in vivo. The method, then: In vitro proteasome activity assays were performed in black 96-well microtitier plates using human 20S proteasome (Boston Biochem) in reaction buffer (25 mM Hepes, 0.5 mM EDTA, 0.03% SDS) with Suc-LLVY-AMC, Z-LLE-AMC or Boc-LRRAMC used as substrates for proteasome activity. De-ubiquitinase activity assays were performed with human 19S RP (Boston Biochem) with ubiquitin-AMC as substrate. For FaDu xenograft studies a 100-μl-cell suspension containing 1×10^6 cells was injected subcutaneously into the flank of SCID. Upon tumor take mice were randomized into control or treatment groups and administered with 5 mg kg^−1 b-AP15 or vehicle. In vivo levels of apoptosis and cell death were determined from the detection of caspase cleaved and total levels of cytokeratin-18 in plasma using M30 Apoptosense® and M65 ELISA®s assays (Peviva). […]
Animal experiments were conducted in full accordance with Swedish governmental statutory regulations on animal welfare under permission from local ethical committees. […] All mice were monitored and weighed daily. […] After injection, tumor growth was measured daily with calipers and the tumor volume calculated by the formula L×W^2×0.44. […] Nineteen days after malignant cell injection all of the mice were killed and histopathological manifestations of liver, ovary (target organs for this model of tumor) were evaluated and compared between groups. […]

A further series has as its system HCT116 cells. It counts as cell-based. Particulars: human. The text has this: These findings indicate that high molecular weight ubiquitin substrate complexes accumulating as a result of DUB inhibition can generate strong cytotoxicity that is insensitive to Bcl-2 over-expression. [table]
Series [2] has as its system proteasome reporter cell line MelJuSo Ub-YFP (UbG76V-YFP). The series is described as follows: Ub-YFP proteasome reporter cell line, accumulation of reporter. The format is cell-based. The conditions noted are these: Homo sapiens, MEL-JUSO; immunoblotting and flow cytometry; read-out: IC50, dose dependent accumulation of the Ub-YFP reporter. The method, then: b-AP15 blocks cellular proteasome function, as confirmed by use of a reporter cell line, which expresses ubiquitin tagged to yellow fluorescent protein (UbG76V-YFP) constitutively targeted for proteasomal degradation (12). […] Since inhibition of proteasome function is characterized by defects in ubiquitin turnover (13) colon carcinoma HCT116 cells were treated with b-AP15 and the level of ubiqutin conjugation analyzed by immunoblotting. […] The increase in polyubiquitin is associated with a strong proteotoxic response characterized by induction of HSPA6 (Hsp70B′), HSPA1B and DNAJB1 (Hsp40).
MCF7 cells were maintained in MEM/10% fetal calf serum. HCT-116 p53+/+, p53−/−, Bcl-2+/+, PUMA−/− and BAX−/− cells were maintained in McCoy's 5A modified medium/10% fetal calf serum. The HCT-116 p53+/+, p53−/−, PUMA−/− and BAX−/− were generated as described (36). The HCT-116 Bcl-2+/+ cell line was generated by transfecting parental HCT-116 p53+/+ cells with pCEP4 Bcl-2 (Addgene plasmid 16461) (37) and isolating high expression clones. […]
b-AP15 inhibits degradation of ubiquitin-tagged YFP in a proteasome reporter cell line (FIG. 1a). Levels of ^UbG76V-YFP accumulation were determined by flow cytometry and immunoblotting; immunoblot of ubiquitin conjugation in HCT-116 cells treated with b-AP15 (1 μM) or bortezomib (100 nM) (FIG. 1b). […]

The results in this text go back to patent US20130079370A1, “Method for the Inhibition of Deubiquitinating Activity” (priority 2011, published 2013).

In general, IC50 refers to the concentration needed to halve the response being measured.

Turning to `C=CC(=O)N1C/C(=C\c2ccc([N+](=O)[O-])cc2)C(=O)/C(=C/c2ccc([N+](=O)[O-])cc2)C1` [b-AP15, (3E,5E)-3,5-bis[(4-nitrophenyl)methylidene]-1-(prop-2-enoyl)piperidin-4-one], the “treated/control tumor volume, T/C” value in series [1] (5 mg/kg s.c. daily for 10 days, p=<0.001) stood at 0.4. In series [1] (FaDu xenograft), the “difference in weight at the start and the endpoint between control and treated animals” value is listed as −1.3%. Also, in the series with HCT116 cells, the “Fold induction DNAJB1 (Hsp40B1)” value is recorded as 22 fold and the “Fold induction HSPA1B” value stood at 21 fold. For the same molecule, the half-maximal inhibitory concentration (IC50) in series [2] is 800 nM.
